Patent publication US9738605B2, “Hybrid compounds of curcumin and melatonin as neuroprotectants for neurodegenerative disorders” (VIRGINIA COMMONWEALTH UNIVERSITY, priority 2013, dated 2017)
Where two headings read alike, the source gives them in different places.

Experiments:
HT22 cells = experiment: Hydrogen peroxide toxicity assay in HT22 cells; type: cell-based, mouse; settings: 24 h
Protocol: HT22 cells were seeded in 96-well plates (4×10^3 cells/well) in growth medium and incubated for 24 h at 37° C. The medium was removed and compounds were added at the indicated concentrations in fresh growth medium, and the cells were incubated for another 1 h. H2O2 was then added at a final concentration of 500 μM, and the plates were then incubated for 24 h. Cell viability was assessed by MTT assay as previously described. Values were expressed as a percentage relative to the negative (H2O2-free) control.

in vitro = settings: for Papp: PAMPA
Protocol: In the same assay, 10 commercial drugs with known CNS penetration were also tested as positive controls, and their experimental values were compared to reported values (Table 1).

[1] = tested on: intracellular oxidative stress in MC65 cells; experiment: ROS production assay in MC65 cells (DCFH-DA); type: cell-based; settings: −TC, 48 h, DCFH-DA 25 μM, read-out: IC50 for suppression of intracellular oxidative stress
Protocol: Cells were harvested, washed twice with cold PBS, then suspended in PBS and incubated with DCFH-DA (25 μM) in dark for 1 h. Fluorescence was analyzed by flow cytometry using a Millipore Guava® easyCyte flow cytometer.

[2] = tested on: amyloid-β oligomers (AβOs) in MC65 cells; experiment: Western blot (6E10) of AβOs production in MC65 cells; type: cell-based; settings: MC65 cells after removal of TC, 6E10 antibody
Protocol: MC65 cells (4×10^5 cells/mL) were treated with indicated compounds for 30 h and then were lysed by sonication in a Tricine buffer solution and boiled for 5 min. Protein samples were collected from the supernatant after centrifugation of the samples at 12,800×g for 5 min, and then quantified using the Bradford method. Equal amounts of protein (20.0 μg) were separated by SDS-PAGE on a gel (Bio-Rad) and transferred onto a PVDF membrane (Bio-Rad). The blots were blocked with 5% milk in TBS-Tween 20 (0.1%) solution at room temperature for 1 h and then probed with the 6E10 antibody overnight at 4° C. The blots were washed twice in TB S-Tween 20 for 15 min, and then incubated with a 1:1000 dilution of horseradish peroxidase-conjugated secondary antibody in a 5% milk/PBS-Tween 20 solution at room temperature for 1 h. After washing twice in TBS-Tween 20 for 15 min, the proteins were visualized by a Western Blot Chemiluminescence Reagent (Thermo Fischer Scientific, Waltham, Mass.). The blots were also probed with antibodies against α-tubulin to ensure equal loading of proteins.

MC65 cells [3] = experiment: Neuroprotection assay in MC65 cells (−TC, MTT); settings: for EC50: read-out: EC50 for neuroprotection of MC65 cells
Protocol: MC65 cells were washed twice with PBS, resuspended in Opti-MEM, and seeded in 96-well plates (4×10^4 cells/well). Indicated compounds were then added, and cells were incubated at 37° C. under +TC or −TC conditions for 72 h. Then, 10 μL of MTT (5 mg/mL in PBS) were added and the cells were incubated for another 4 h. Cell medium was then removed, and the remaining formazan crystals produced by the cellular reduction of MTT were dissolved in DMSO. Absorbance at 570 nm was immediately recorded using a FlexStation® 3 plate reader (Molecular Devices, CA).

MC65 cells [4] = experiment: Cytotoxicity in MC65 cells under normal growth conditions (+TC), MTT; type: cell-based; settings: 72 h
Protocol: FIG. 7A-D. Effects on viability of TRO19622, Mito-TEMPO and 7 in MC65 cells. A. MC65 cells were treated with Mito-TEMPO or TRO-19622 at indicated concentrations under normal growth conditions (+TC) for 72 h. Cell viability was assessed by MTT assay. Data were expressed as mean percentage viability (n=3) with parallel +TC cultures set at 100% viability. Error bars represent SEM. B. MC65 cells were treated with Mito-TEMPO at indicated concentrations under −TC conditions for 72 h. Cell viability was assessed by MTT assay. Data were expressed as mean percentage viability (n=3) with parallel +TC cultures set at 100% viability. C. MC65 cells were treated with TRO-19622 at indicated concentrations under −TC conditions for 72 h. Cell viability was assessed by MTT assay. Data were expressed as mean percentage viability (n=3) with parallel +TC cultures set at 100% viability. D. MC65 cells were treated with 7 or Mito-TEMPO at indicated concentrations for 2 h before addition of rotenone for 48 h. Cell viability was assessed by MTT assay. Data were expressed as mean percentage viability (n=3) with parallel +TC cultures set at 100% viability. […]

Aβ42 = biological target: T1, Aβ42 (Homo sapiens, UniProt P05067); experiment: Thioflavin T assay of Aβ42 fibril formation; type: biochemical; settings: 10 μM compound, Aβ42 25 μm, 48 h, ThT; read-out: inhibition of the formation of Aβ42 fibrils
T1 construct: purchased American Peptide, Inc. (Sunnyvale, Calif.)
T1 sequence (P05067 672-713 limits assumed): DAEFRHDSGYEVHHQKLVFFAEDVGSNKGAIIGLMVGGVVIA
Protocol: Briefly, 1 μL of each compound solution in DMSO (0.01 μM to 100 μM) was added to corresponding wells in a 96-well plate. Each concentration was prepared in independent triplicates and a solvent control was included. To each well, 9 μL of 25 μM Aβ42 in PBS (pH 7.4) was added, and then plates were incubated in dark at room temperature for 48 h. Next, 200 μL of a 5 μM ThT in 50 mM glycine solution (pH 8.0) was added to each well.

MC65 cells [5] = experiment: Rotenone protection assay in MC65 cells; type: cell-based; settings: 10 μM, 48 h
Protocol: The medium was removed and compounds were added at the indicated concentrations in fresh growth medium, and the cells were incubated for another 2 h. Rotenone was then added at a final concentration of 10 μM, and the plates were then incubated for 48 h. Cell viability was assessed by MTT assay.

[6] = background statement; cited from earlier work

## Cc1c(C)c2c(c(C)c1O)CCC(C)(C(=O)O)O2 (centres unmarked) [Trolox, 6-hydroxy-2,5,7,8-tetramethyl chroman-2-carboxylic acid]
HT22 cells; 300 μM, H2O2 500 μM
  protection from H2O2-induced cytotoxicity: full rescue

## COc1ccc2[nH]cc(CCNC(=O)CC(=O)/C=C/c3ccc(O)cc3)c2c1 [Compound 5]
In vitro
  Papp: 5.9 ± 0.4 ×10⁻⁶ cm/s
[1]
  IC50: ~63 nM
[2]
  effect on the production of AβOs (tetramers, pentamers, heptamers): dose-dependently suppressed
MC65 cells [3]; 0.3 μM, −TC, 72 h, MTT
  neuroprotection of MC65 cells from −TC induced cell death: significant neuroprotection
MC65 cells [3]; MC65, 72 h
  EC50: 23.1 ± 5.23 nM

## COc1ccc2[nH]cc(CCNC(=O)CC(=O)/C=C/c3ccc(O)c(OC)c3)c2c1 [Compound 3]
In vitro; PBS:EtOH (70:30), mean ± SD of 3 independent experiments
  Permeability Pe (exp.): 6.5 ± 0.6 10^−6 cm s^−1
In vitro; from Pe (exp.) and correlation with reported values
  Prediction of penetration in the CNS: CNS− (compounds with Pe<8.1×10^−6 cm s^−1 will have low BBB permeability by passive diffusion)
MC65 cells [3]; 0.3 μM, −TC, 72 h
  increase in cell viability: ~61%
MC65 cells [3]; −TC conditions, 72 h, MTT
  EC50: 134 ± 4.5 nM

## COc1cccc(C=CC(=O)CC(=O)NCCc2c[nH]c3ccc(OC)cc23)c1 [Compound 4]
MC65 cells [3]; 0.3 μM, −TC, 72 h, MTT
  neuroprotection of MC65 cells from −TC induced cell death: complete loss of neuroprotection

## CN1C(C(=O)Nc2ccccn2)=C(O)c2ccccc2S1(=O)=O [Piroxicam, reference compound]
In vitro
  Papp: 6 ± 0.3 ×10⁻⁶ cm/s

## COc1ccc2[nH]cc(CCNC(=O)CC(=O)C=Cc3ccoc3)c2c1 [AM5]
MC65 cells [3]; 0.3 μM, −TC, 72 h
  protection compared to −TC control: ~48%

## CC(C)CCC[C@@H](C)[C@H]1CC[C@H]2[C@@H]3CCC4=CC(=NO)CC[C@]4(C)[C@H]3CC[C@]12C [TRO-19622, reference compound]
MC65 cells [4]; up to 25 μM
  cytotoxicity in MC65 cells under +TC: did not show cytotoxicity
MC65 cells [3]; up to 25 μM, −TC, 72 h
  protection from −TC induced cytotoxicity: did not show significant protection

## COc1ccc2[nH]cc(CCNC(=O)CC(=O)C=Cc3ccc(N(C)C)cc3)c2c1 [AM14]
MC65 cells [3]; 0.3 μM, −TC, 72 h
  protection compared to −TC control: ~0.20%

## CC1(C)CC(NC(=O)C[P+](c2ccccc2)(c2ccccc2)c2ccccc2)CC(C)(C)N1[O] [Mito-TEMPO, reference compound]
MC65 cells [4]; up to 10 μM
  toxic effects in MC65 cells under +TC: did not show toxic effects
MC65 cells [3]; indicated concentrations, maximum 10 μM, −TC, 72 h
  protection from −TC induced cytotoxicity: dose-dependently protected

## COc1ccc2[nH]cc(CCNC(=O)CC(=O)C=Cc3ccco3)c2c1 [AM4]
MC65 cells [3]; 0.3 μM, −TC, 72 h, MTT
  neuroprotection of MC65 cells from −TC induced cell death: did not show neuroprotection

## COc1ccc2[nH]cc(CCNC(=O)CC(=O)C=Cc3ccncc3)c2c1 [AM6]
MC65 cells [3]; 0.3 μM, −TC, 72 h
  protection compared to −TC control: ~33%

## COc1cc(/C=C/C(=O)CC(=O)/C=C/c2ccc(O)c(OC)c2)ccc1O [Compound 1, Curcumin]
MC65 cells [3]; 0.3 μM, −TC, 72 h, MTT
  neuroprotection of MC65 cells from −TC induced cell death: no neuroprotection
MC65 cells [3]; 3 and 10 μM, −TC
  neuroprotection at much higher concentrations (data not shown): moderate neuroprotection
Aβ42
  inhibition at 10 µM: 27.3%

## OO [Compound H2O2, H2O2]
HT22 cells; 500 μM
  HT22 cell death: ~58%

## C=C(C)[C@H]1Cc2c(ccc3c2O[C@@H]2COc4cc(OC)c(OC)cc4[C@@H]2C3=O)O1 [rotenone, reference compound]
MC65 cells [5]
  cell death of MC65 cells: 75.6%

## COc1ccc2[nH]cc(CCNC(=O)CC(=O)C=Cc3ccc4c(c3)OCO4)c2c1 [ZSJ-II-126]
MC65 cells [3]; 0.3 μM, −TC, 72 h, MTT
  neuroprotection of MC65 cells from −TC induced cell death: diminished protection

## COc1ccc2[nH]cc(CCNC(C)=O)c2c1 [Compound 2, Melatonin]
[6]
  half-life: < 30 min
MC65 cells [3]; 0.3 μM, −TC, 72 h, MTT
  neuroprotection of MC65 cells from −TC induced cell death: no neuroprotection

## CN(C)CCCN1c2ccccc2Sc2ccccc21 [Promazine, reference compound]
In vitro
  Papp: 25.1 ± 1.4 ×10⁻⁶ cm/s
